Where a name gives a salt, the structure may show the parent alone. Read-outs that look alike come from different tables or passages of the source.
How the values were obtained:
[1] = Vogel conflict (punished drinking) model of anxiety
[2] = reported; models not named; cited from earlier work
[3] = isethionate salt, EP-A-0 247 892, cited from earlier work
[4] = test system: mice; assay: Orientative acute oral toxicity (LD50) in mice; type: in vivo; conditions: 50% survive 10 days after administration
Source text: (§1) The present compounds are non-toxic at prophylactically and therapeutically effective doses. […] These are the dose levels at which 50% of the animals survive 10 days after administration of compound A.

[5] = Orientative acute oral toxicity (LD50) in rats; conditions: rat, in vivo, 50% survive 10 days after administration
Source text: as §1

[6] = test system: voltage-sensitive sodium channels; conditions: Lang et al 1993; Lees and Leach 1993; cited from earlier work
[7] = test system: release of excitatory amino acids, principally glutamate; conditions: at anticonvulsant brain concentrations; Leach et al 1986; Zhu and McGee 1990; cited from earlier work
[8] = Rattus norvegicus, po, 1 h, read-out: number of licks, percentage of vehicle control responding, 20 mg/kg p.o., one hour before test, vehicle=100% (Table 3)
[9] = Rattus norvegicus, po, 1 h, read-out: number of licks, percentage of vehicle control responding, 40 mg/kg p.o., one hour before test, vehicle=100% (Table 3)
[10] = Rattus norvegicus, po, 1 h, read-out: number of licks, percentage of vehicle control responding, 80 mg/kg p.o., one hour before test, vehicle=100% (Table 3)
[11] = dose-response across tested doses, significance p<0.05, Mann-Whitney U-test
[12] = Rattus norvegicus, po, 1 h, read-out: number of licks, percentage of vehicle control responding
[13] = Rattus norvegicus, sc, 20 min, read-out: number of licks, percentage of vehicle control responding
[14] = Rattus norvegicus, 1 h, read-out: number of licks, percentage of vehicle control responding
[15] = Rattus norvegicus, po, 1 h, read-out: number of licks, percentage of vehicle control responding, 160 mg/kg p.o., one hour before test, vehicle=100% (Table 3)

With `NC(=O)N1c2ccccc2C=Cc2ccccc21` [Carbamazepine] as the molecule, how does the “effect on punished responding (in words)” value ([1]; 5.0 mg/kg p.o.) read?
Its value is “no effect”.

And the “effect on punished responding (in words)” value ([1]; 20 mg/kg p.o.)?
Its value is “non-significant increase in PR”.

What about the response vs control in vivo at 5 mg/kg ([1]; Rattus norvegicus, po, 1 h, read-out: number of licks, percentage of vehicle control responding, 5.0 mg/kg p.o., one hour before test, vehicle=100% (Table 2)) of the same molecule?
The response vs control in vivo at 5 mg/kg was 87%.

What about the response vs control in vivo at 10 mg/kg ([1]; Rattus norvegicus, po, 1 h, read-out: number of licks, percentage of vehicle control responding, 10 mg/kg p.o., one hour before test, vehicle=100% (Table 3)) of the same molecule?
The response vs control in vivo at 10 mg/kg was 154%.

And the response vs control in vivo at 20 mg/kg ([1]; Rattus norvegicus, po, 1 h, read-out: number of licks, percentage of vehicle control responding, 20.0 mg/kg p.o., one hour before test, vehicle=100% (Table 2))?
Its response vs control in vivo at 20 mg/kg is 161%.

And the response vs control in vivo at 20 mg/kg [1, 8]?
Its response vs control in vivo at 20 mg/kg is 206%.

What about the response vs control in vivo at 40 mg/kg [1, 9] of the same molecule?
The response vs control in vivo at 40 mg/kg was 219%.

And the response vs control in vivo at 80 mg/kg [1, 10]?
Its response vs control in vivo at 80 mg/kg is 309%.

What about the “effect on punished responding (in words)” value [1, 11] of the same molecule?
Its value is “dose-related, significant increase in punished responding”.

With `CN1[C@@H]2CC[C@H]1C[C@@H](OC(=O)c1cc(Cl)cc(Cl)c1)C2` [Bemesetron] as the molecule, how does the “anxiolytic effects in other animal models” value [2] read?
The value was “reported to exhibit anxiolytic effects in other animal models”.

And the response vs control in vivo at 0.0001 mg/kg [1, 12]?
The response vs control in vivo at 0.0001 mg/kg was 89%.

What about the response vs control in vivo at 0.001 mg/kg [1, 12] of the same molecule?
Its response vs control in vivo at 0.001 mg/kg is 129%.

What about the response vs control in vivo at 0.01 mg/kg [1, 12] of the same molecule?
Its response vs control in vivo at 0.01 mg/kg is 156%.

And the response vs control in vivo at 0.1 mg/kg [1, 12]?
Its response vs control in vivo at 0.1 mg/kg is 116%.

What about the “effect on punished responding (in words)” value [1, 11] of the same molecule?
Its value is “lack of any significant anxiolytic effect”.

Which results are given for `CN1C(=O)CN=C(c2ccccc2)c2cc(Cl)ccc21` [Diazepam, 7-chloro-1,3-dihydro-1-methyl-5-phenyl-2H-1,4-benzodiazepin-2-one]?
ataxia ([1]; 1.0 mg/kg s.c.): accompanied by ataxia; response vs control in vivo at 0.5 mg/kg [1, 13]: 162%; response vs control in vivo at 1 mg/kg [1, 13]: 296%; effect on punished responding (in words) [1, 11]: dose-related increase in punished responding (PR) at 0.5 and 1.0 mg/kg. This effect was large and significant

What does the source list for `Nc1nnc(-c2cccc(Cl)c2Cl)c(N)n1` [Compound A isethionate, 3,5-diamino-6-(2,3-dichlorophenyl)-1,2,4-triazine isethionate]?
solubility [3]: good solubility; solubility ([3]; listed as salt with isethionic acid): particularly good solubility; other behavioural changes ([1]; 10, 20, 40 mg/kg base equivalent p.o.): no other behavioural changes were observed; response vs control in vivo at 10 mg/kg [1, 14]: 92%; response vs control in vivo at 20 mg/kg [1, 14]: 165%; response vs control in vivo at 40 mg/kg [1, 14]: 208%; effect on punished responding (in words) [1, 11]: dose-related increase in punished responding at 20 and 40 mg/kg, that at the latter dose being significant

Which “effect on punished responding (in words)” value ([1]; 10 or 40 mg/kg p.o.) does the source give for `O=C1NC(=O)C(c2ccccc2)(c2ccccc2)N1` [Phenytoin sodium] here?
Its value is “no effect on PR”.

And the response vs control in vivo at 10 mg/kg ([1]; Rattus norvegicus, po, 1 h, read-out: number of licks, percentage of vehicle control responding, 10.0 mg/kg p.o. (parent acid equivalent), one hour before test, vehicle=100% (Table 2))?
The response vs control in vivo at 10 mg/kg was 121%.

And the response vs control in vivo at 20 mg/kg [1, 8]?
Its response vs control in vivo at 20 mg/kg is 101%.

What about the response vs control in vivo at 40 mg/kg ([1]; Rattus norvegicus, po, 1 h, read-out: number of licks, percentage of vehicle control responding, 40.0 mg/kg p.o. (parent acid equivalent), one hour before test, vehicle=100% (Table 2)) of the same molecule?
The response vs control in vivo at 40 mg/kg was 114%.

And the response vs control in vivo at 40 mg/kg [1, 9]?
Its response vs control in vivo at 40 mg/kg is 135%.

What about the response vs control in vivo at 80 mg/kg [1, 10] of the same molecule?
Its response vs control in vivo at 80 mg/kg is 220%.

What about the response vs control in vivo at 160 mg/kg [1, 15] of the same molecule?
The response vs control in vivo at 160 mg/kg was 173%.

Which response vs control in vivo at 40 mg/kg [1, 12] does the source give for `CCCC(CCC)C(=O)O` [Sodium valproate] here?
The response vs control in vivo at 40 mg/kg was 79%.

And the response vs control in vivo at 80 mg/kg [1, 12]?
The response vs control in vivo at 80 mg/kg was 108%.

What about the response vs control in vivo at 160 mg/kg [1, 12] of the same molecule?
The response vs control in vivo at 160 mg/kg was 151%.

What about the response vs control in vivo at 320 mg/kg [1, 12] of the same molecule?
Its response vs control in vivo at 320 mg/kg is 261%.

Which “anxiolytic effects in other animal models” value [2] does the source give for `Cc1nccn1CC1CCc2c(c3ccccc3n2C)C1=O` (stereo not drawn) [Ondansetron hydrochloride] here?
Its value is “reported to exhibit anxiolytic effects in other animal models”.

What about the response vs control in vivo at 0.0001 mg/kg ([1]; Rattus norvegicus, po, 1 h, read-out: number of licks, percentage of vehicle control responding, 0.1 μg/kg p.o., one hour before test, vehicle=100% (Table 3)) of the same molecule?
The response vs control in vivo at 0.0001 mg/kg was 68%.

And the response vs control in vivo at 0.001 mg/kg ([1]; Rattus norvegicus, po, 1 h, read-out: number of licks, percentage of vehicle control responding, 1.0 μg/kg p.o., one hour before test, vehicle=100% (Table 3))?
The response vs control in vivo at 0.001 mg/kg was 80%.

And the response vs control in vivo at 0.01 mg/kg ([1]; Rattus norvegicus, po, 1 h, read-out: number of licks, percentage of vehicle control responding, 10 μg/kg p.o., one hour before test, vehicle=100% (Table 3))?
The response vs control in vivo at 0.01 mg/kg was 70%.

And the response vs control in vivo at 0.1 mg/kg ([1]; Rattus norvegicus, po, 1 h, read-out: number of licks, percentage of vehicle control responding, 100 μg/kg p.o., one hour before test, vehicle=100% (Table 3))?
The response vs control in vivo at 0.1 mg/kg was 87%.

And the “effect on punished responding (in words)” value [1, 11]?
Its value is “lack of any significant anxiolytic effect”.

With `CCC1(C)CC(=O)NC1=O` (stereo not drawn) [Ethosuximide] as the molecule, how does the response vs control in vivo at 40 mg/kg [1, 9] read?
The response vs control in vivo at 40 mg/kg was 64%.

What about the response vs control in vivo at 80 mg/kg [1, 10] of the same molecule?
The response vs control in vivo at 80 mg/kg was 133%.

And the response vs control in vivo at 160 mg/kg [1, 15]?
Its response vs control in vivo at 160 mg/kg is 61%.

What about the response vs control in vivo at 320 mg/kg ([1]; Rattus norvegicus, po, 1 h, read-out: number of licks, percentage of vehicle control responding, 320 mg/kg p.o., one hour before test, vehicle=100% (Table 3)) of the same molecule?
The response vs control in vivo at 320 mg/kg was 96%.

What does the source list for `Nc1nnc(-c2cccc(Cl)c2Cl)c(N)n1` [Compound A, 3,5-Diamino-6-(2,3-dichlorophenyl)-1,2,4-triazine]?
acute oral toxicity (LD50) [4]: 250 mg/kg; LD50 at 240 h [5]: 640 mg/kg; block of voltage-sensitive sodium channels [6]: use-dependent block of voltage-sensitive sodium channels; inhibition of release of excitatory amino acids, principally glutamate [7]: inhibit the release of excitatory. amino acids, principally glutamate

From patent US5658905A, “Use of triazine compounds as anxiolytics” (priority 1993, dated 1997)
